# In paper PMC9839694, “Genetic basis of thiaminase I activity in a vertebrate, zebrafish Danio rerio” (Scientific Reports, 2023):
# Structures can show the parent of a compound that is named as a salt.
# Legend:
# [1] = molecular target: T1, zebrafish TenA-like thiaminase I (NP_001314821.1) (Danio rerio, UniProt A0A0R4IDF2); assay: in-gel thiaminase I activity staining (diazo-coupling) after electrophoresis; type: biochemical; conditions: 0.89 mM thiamine-HCl with a co-substrate, 25 mM sodium phosphate, 37 °C
# T1 construct: gene teni.1; synthetic gene in pET52b, expressed in E. coli Rosetta 2(DE3)pLysS, soluble lysate fraction; oligomer 25 to 100 kDa native
# T1 sequence (A0A0R4IDF2 22-223): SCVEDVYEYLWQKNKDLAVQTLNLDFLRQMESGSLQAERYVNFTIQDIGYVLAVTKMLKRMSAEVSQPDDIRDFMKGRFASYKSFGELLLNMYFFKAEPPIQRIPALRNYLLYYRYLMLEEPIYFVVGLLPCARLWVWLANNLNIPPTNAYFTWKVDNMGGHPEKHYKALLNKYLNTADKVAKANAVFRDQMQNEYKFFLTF
# [2] = molecular target: T2, Paenibacillus thiaminolyticus thiaminase I (WP_087440168) (Paenibacillus thiaminolyticus, UniProt B0FJ10); assay: as above; type: biochemical; conditions: 0.89 mM thiamine-HCl with a co-substrate, 25 mM sodium phosphate, 37 °C; recombinant positive control
# T2 construct: gene bcmE; native enzyme in concentrated culture supernatant (strain 8188), and recombinant positive control from synthetic gene in pET52b in E. coli; 42 kDa monomer
# T2 sequence (B0FJ10 31-409): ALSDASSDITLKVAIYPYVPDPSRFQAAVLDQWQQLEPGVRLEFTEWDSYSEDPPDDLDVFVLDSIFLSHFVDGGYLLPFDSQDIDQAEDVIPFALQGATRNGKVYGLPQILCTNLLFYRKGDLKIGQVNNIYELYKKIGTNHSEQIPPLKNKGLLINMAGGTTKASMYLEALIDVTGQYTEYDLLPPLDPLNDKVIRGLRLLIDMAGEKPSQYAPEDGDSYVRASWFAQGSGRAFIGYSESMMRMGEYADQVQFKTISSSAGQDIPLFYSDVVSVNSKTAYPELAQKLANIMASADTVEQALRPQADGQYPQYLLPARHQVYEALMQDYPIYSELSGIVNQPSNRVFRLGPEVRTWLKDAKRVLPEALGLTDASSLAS
compound,measurement,setting,value
Cc1ncc(C[n+]2csc(CCO)c2C)c(N)n1 [thiamine-HCl],in-gel thiaminase I activity staining (diazo-coupling) after electrophoresis,[1],expressed in the soluble fraction of the protein extract and showed thiaminase I activity
same,in-gel thiaminase I activity staining (diazo-coupling) after electrophoresis,[2],stained for activity showing thiamine degradation as clear areas
